Source: patent US20260109870A1, “PEPTIDE-BASED NON-CRYSTALLINE MATERIALS AND COMPOSITIONS AND PROCESSES FOR OBTAINING SAME” (Ramot at Tel-Aviv University Ltd., priority 2022, published 2026)
Residues, ends and D or L forms follow the SMILES beside them.

Experiment: physchem
Details: water
Method: Each amino acid or peptide was weighed. Water was gradually added at room temperature and the solution was vortexed. After each addition of water, the solution was sampled and evaluated under light microscopy; this process was repeated until no visible particles were detected and the concentration was calculated and determined as the solubility limit of the peptide in water.
For N[C@@H](Cc1ccc(O)cc1)C(=O)N[C@@H](Cc1ccc(O)cc1)C(=O)O [YY] (H-Tyr-Tyr-OH), the solubility was > 1000 mg/mL. In the case of N[C@@H](Cc1ccc(O)cc1)C(=O)N[C@@H](Cc1ccccc1)C(=O)O [YF] (H-Tyr-Phe-OH), the solubility is reported as > 1000 mg/mL.

Experiment: not given
Details: in water; marked (literature); cited from earlier work
In the case of N[C@@H](Cc1ccccc1)C(=O)O [F, phenylalanine], the solubility is listed as 29.6 (literature) milligram/milliliter.

Experiment: Solubility limit in water (gradual water addition, vortex, light microscopy)
Details: not given
With N[C@@H](Cc1ccccc1)C(=O)N[C@@H](Cc1ccc(O)cc1)C(=O)O [FY] (H-Phe-Tyr-OH) the solubility was > 1000 mg/mL. With N[C@@H](Cc1ccc(O)cc1)C(=O)N[C@@H](Cc1ccc(O)cc1)C(=O)N[C@@H](Cc1ccccc1)C(=O)O [YYF] (H-Tyr-Tyr-Phe-OH) the solubility was > 1000 mg/mL. In the case of N[C@@H](Cc1ccc(O)cc1)C(=O)N[C@@H](Cc1ccccc1)C(=O)N[C@@H](Cc1ccc(O)cc1)C(=O)O [YFY] (H-Tyr-Phe-Tyr-OH), the solubility is reported as > 1000 mg/mL. In the case of N[C@@H](Cc1ccc(O)cc1)C(=O)N[C@@H](Cc1ccccc1)C(=O)N[C@@H](Cc1ccccc1)C(=O)O [YFF] (H-Tyr-Phe-Phe-OH), the solubility is reported as > 250 mg/mL. With N[C@@H](Cc1ccccc1)C(=O)N[C@@H](Cc1ccc(O)cc1)C(=O)N[C@@H](Cc1ccc(O)cc1)C(=O)O [FYY] (H-Phe-Tyr-Tyr-OH) the solubility was > 1000 mg/mL. For N[C@@H](Cc1ccccc1)C(=O)N[C@@H](Cc1ccc(O)cc1)C(=O)N[C@@H](Cc1ccccc1)C(=O)O [FYF, reference compound] (H-Phe-Tyr-Phe-OH), the solubility was < 5 mg/mL. For N[C@@H](Cc1ccc(O)cc1)C(=O)N[C@@H](Cc1ccc(O)cc1)C(=O)N[C@@H](Cc1ccc(O)cc1)C(=O)O [YYY, Tyr-Tyr-Tyr] (H-Tyr-Tyr-Tyr-OH), the solubility was > 1000 mg/mL. With N[C@@H](Cc1ccccc1)C(=O)N[C@@H](Cc1ccccc1)C(=O)N[C@@H](Cc1ccc(O)cc1)C(=O)O [FFY] (H-Phe-Phe-Tyr-OH) the solubility was > 250 mg/mL. With N[C@@H](Cc1ccccc1)C(=O)N[C@@H](Cc1ccccc1)C(=O)N[C@@H](Cc1ccccc1)C(=O)O [FFF, reference compound] (H-Phe-Phe-Phe-OH) the solubility was < 1 mg/mL.
